Common to all, as to experiment: NCI tumour cell line growth inhibition, 48 h
The test system of test [1] is NCI-H23 lung.
Test [2] concerns HT29 colon.
Test [3] concerns UO-31 renal.
The subject of test [4] is NCI-H460 lung.
Test [5] concerns OVCAR-4 ovarian.
In test [6] the test system is SK-OV-3 ovarian.
Test [7] concerns HCC-2998 colon.
The test system of test [8] is ACHN renal.
The subject of test [9] is HOP-92 NSCLC.
Test [10] deals with HCT-116 colon.

Several values for one entry are separate records, joined by “and”; a condition that tells them apart may be missing. Identical values can stand only once.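 48-hour exposure; five concentrations; linearly interpolated endpoints. Abbreviation: GI50, concentration required for 50% inhibition of growth. TGI: total growth inhibition.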 Some results are limits rather than exact numbers.

On to `COc1cc(/C=C2\C(=O)Nc3cc(C)c(O)cc32)cc(OC)c1OC`, for which the GI50 in test [1] is 3.61 µM; in [2] it was 4.01 µM; in test [3], 4.94 µM; in [4], 3.2 µM; in test [5] it was 8.23 µM; in test [6], 7.34 µM. The GI50 in test [7] was 5.18 µM; in [8] it was 8.27 µM; in test [9] it was 5.61 µM; in [10], 4.07 µM. The TGI is 23.7 µM in test [1]; above 39.6 µM in test [2]; 41.6 µM in [3]; 11.7 µM in test [4]; above 67.7 µM in [5]; 54.1 µM in test [6]. Besides, the TGI in test [7] was 17.5 µM; in test [8], 24.6 µM; in test [9], above 100 µM; in test [10], 15.8 µM.
For the compound `C=C1C(=O)O[C@@H]2C[C@@H](C)[C@@H]3C=CC(=O)[C@@]3(C)[C@@H](OC(=O)CC(=O)O[C@H]3[C@@H]4C(=C)C(=O)O[C@@H]4C[C@@H](C)[C@@H]4C=CC(=O)[C@]43C)[C@H]12`, the TGI is 0.123 µM in [1]; 0.223 µM in test [2]; 0.271 µM in test [3]; 0.361 µM in [4]; 0.14 µM in test [5]; 0.785 µM in test [6]. For the same compound, the TGI was determined as 0.303 µM in [7], 0.189 µM in test [8], 0.0746 µM in test [9] and 0.0398 µM in [10].
For the compound `COc1ccc(-c2cc(=O)c3ccc(C)nc3[nH]2)cc1`, the TGI in test [1], in test [2], in test [3], in test [4], in test [5] and in [6] was above 100 µM each time. The TGI in [7], in test [8], in test [9] and in test [10] was above 100 µM in each case. Moreover, the GI50 in test [4] and in [10] was above 100 µM throughout.
Regarding `CC(=O)O[C@H]1CC[C@@]2(C)C(=CC[C@H]3[C@@H]4CC[C@H](c5cc(C(F)(F)F)n(C(C)=O)n5)[C@@]4(C)CC[C@@H]32)C1`, the TGI in test [1] was determined as 28.6 µM; in [2], 17.4 µM; in test [3] it was 3.23 µM; in [4], 12.6 µM; in test [5], 15.6 µM; in test [6] it was 25.4 µM. Moreover, the TGI in [7] was 27.3 µM; in [8] it was 20.2 µM; in test [9], 6.43 µM; in [10], 15.8 µM.
With `CCCNNC(=O)/C=C/c1ccc(CNCCc2c(C)[nH]c3ccccc23)cc1`, the GI50 in test [1] was 0.0545 µM; in [2], 0.0123 µM; in test [3], 0.0593 µM; in [4], 0.0726 µM; in [5] it was 0.0525 µM; in [6], 0.0357 µM. Besides, the GI50 in [7] is 0.0449 µM; in test [8] it was 0.0284 µM; in [9] it was 0.00693 µM; in test [10], 0.00887 µM. Further, the TGI is 3.5 µM in test [1]; 1.53 µM in test [2]; 0.601 µM in test [3]; 3.57 µM in [4]; 6.45 µM in test [5]; 0.482 µM in test [6]. Besides, the TGI in test [7] is 0.115 µM; in [8] it was 0.116 µM; in test [9] it was 0.0744 µM; in [10], 0.324 µM.
For `FC(F)c1nc2ccccc2n1-c1nc(N2CCOCC2)nc(N2CCOCC2)n1`, the GI50 was 0.492 µM and 0.617 µM in test [1]; 0.238 µM and 0.37 µM in test [2]; 0.046 µM and 0.103 µM in test [3]; 0.276 µM and 0.303 µM in test [4]; 0.797 µM and 0.475 µM in test [5]; 0.175 µM and 0.27 µM in [6]. Also, the GI50 is 0.497 µM and 0.807 µM in [7]; 0.299 µM and 0.397 µM in test [8]; 0.0486 µM and 0.0548 µM in test [9]; 0.618 µM and 0.734 µM in [10]. The TGI in [2] was above 100 µM; in test [3], 0.835 µM and 1.38 µM; in test [4], above 100 µM; in test [5], 6.87 µM and 5.39 µM; in test [6], 1.03 µM and 1.94 µM; in test [8], above 100 µM. Besides, the TGI in [9] was 0.382 µM and 0.551 µM; in test [10], above 100 µM.
As to `Cc1[nH]c2ccccc2c1C(=O)CC1(O)C(=O)Nc2ccccc21` (stereo not given), the TGI in [1], in test [2], in test [3], in test [4], in test [5] and in [6] was above 100 µM in each case. Besides, the TGI in test [7], in [8], in [9] and in test [10] was above 100 µM in each case.
As for `CCOC(=O)c1sc(-c2ccc(OS(=O)(=O)c3ccc(Br)s3)c(C=O)c2)nc1C`, the GI50 in test [1] was 3.37 µM; in [2], 2.45 µM; in test [3], 2.63 µM; in test [4], 22.7 µM; in test [5], 3.06 µM; in test [6], 36.4 µM. The GI50 was 13.3 µM in [7], 3.02 µM in [8], 2.08 µM in [9] and 1.89 µM in test [10]. Also, the TGI in [1] was 13.7 µM; in test [2], 6.43 µM; in test [3] it was 9.76 µM; in [4] it was 58.6 µM; in [5], 9.85 µM; in test [6], 97.1 µM. The TGI was determined as 29.3 µM in [7], 9.05 µM in test [8], 6.87 µM in test [9] and 3.95 µM in test [10].
For the compound `O=C(CC(c1ccccc1)c1c(O)c2ccccc2oc1=O)c1ccccc1` (stereo not given), the TGI in test [1], in [2], in test [3], in test [4], in test [5] and in [6] was above 100 µM throughout. For the same compound, the TGI in [7] is above 100 µM; in test [8], above 100 µM; in test [9] it was above 86.5 µM; in [10], above 100 µM.
